Reference: US4338334A, “1-[4-(4-Sulfanilyl)phenyl] urea and derivatives in compositions and methods of treating rheumatoid arthritis and immune complex diseases” (priority 1980, dated 1982)

Assays:
methemoglobin = test system: methemoglobin; set-up: species or system mice; conditions: mouse, in vivo
[1] = test system: chick peritoneal macrophages; conditions: Shigeura et al., 1975; cited from earlier work
mice = assay: acute toxicity as measured by LD50 in mice; assay type: in vivo; conditions: compared with dapsone
lymphocyte = lymphocyte transformation; assay type: cell-based
Marek's disease = conditions: cited from earlier work
[2] = test system: mammalian macrophage membrane; assay: incorporation of choline into the mammalian macrophage membrane; assay type: cell-based
[3] = cited from earlier work; for ability to alter the course of the disease / immune complexes as measured by rheumatoid factor titers: rheumatoid arthritis

| Compound | lymphocyte transformation (lymphocyte) | incorporation of choline into the mammalian macrophage membrane [2] | ability to alter the course of the disease [3] | immune complexes as measured by rheumatoid factor titers [3] | further results |
| --- | --- | --- | --- | --- | --- |
| NC(=O)Nc1ccc(S(=O)(=O)c2ccc(N)cc2)cc1 [1-[4-(4-sulfanilyl)phenyl]urea] | effect lymphocyte transformation | inhibit the incorporation |  |  | methemoglobin formation (methemoglobin): significantly less active in producing this toxic syndrome; incorporation of chloline in chick peritoneal macrophages [1]: inhibit the incorporation; acute toxicity as measured by LD50 (mice): less acutely toxic than dapsone; lesion incidence of poultry exposed to Marek's disease (Marek's disease): decreasing lesion incidence; mortality of poultry exposed to Marek's disease (Marek's disease): reducing mortality |
| CC(C)(S)[C@@H](N)C(=O)O [D-penicillamine] |  |  | can alter the course of the disease | reducing the immune complexes |  |
| Nc1ccc(S(=O)(=O)c2ccc(N)cc2)cc1 [Dapsone, 4,4'-diaminodiphenylsulfone] | effect lymphocyte transformation | inhibit the incorporation |  |  | effectiveness in treating rheumatoid arthritis ([3]; McConkey et al., 1976): effective in treating rheumatoid arthritis |
| CC(=O)Oc1ccccc1C(=O)O [aspirin] |  |  | unable to alter the course of the disease |  | symptomatic relief of the acute syndrome characterizing rheumatoid arthritis ([3]; in vivo): effective in providing symptomatic relief of the acute syndrome |
| gold |  |  | can alter the course of the disease | reducing the immune complexes |  |
